Assay [1] deals with GST-tagged PIK3Cδ in complex with PIK3R1 (Homo sapiens, UniProt O00329). In words: PI3Kδ HTRF binding assay. Particulars: read-out: PIK3CD IC50.
Assay [2] deals with T1, His-GST-TVMV-hRIPK1(1-324) (Homo sapiens, UniProt Q13546).
T1 construct: The coding region of human RIPK1(1-324) flanked by NdeI site at 5′ end; made in house; host or cells: Spodoptera frugiperda Sf9 insect cells (baculovirus, Bac-to-Bac)
T1 sequence (Q13546 1-324): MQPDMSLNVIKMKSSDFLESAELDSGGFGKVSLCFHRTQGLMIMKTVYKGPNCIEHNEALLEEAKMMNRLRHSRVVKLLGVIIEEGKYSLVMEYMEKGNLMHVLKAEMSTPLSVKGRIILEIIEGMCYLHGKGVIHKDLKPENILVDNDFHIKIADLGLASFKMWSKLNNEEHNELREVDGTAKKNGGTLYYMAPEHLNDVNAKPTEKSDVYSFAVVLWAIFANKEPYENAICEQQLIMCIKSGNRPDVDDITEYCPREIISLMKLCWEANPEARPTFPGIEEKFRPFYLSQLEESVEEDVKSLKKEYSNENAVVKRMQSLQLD
Put plainly: biochemical. Format: binding.

The test system of assay [3] is MLKL phosphorylation in HT29-L23 human colorectal adenocarcinoma cells. In words: MLKL phosphorylation high-content assay. Type of assay: cell-based.
Where [4] appears, read: HTRF probe displacement, 1 h at rt.
Where [5] appears, read: HTRF probe displacement, 1 h at rt, read-out: RIPK1 IC50.
[6] abbreviates: Homo sapiens, 6 h, read-out: pMLKL IC50, HT29-L23 cells, necroptosis induced with TNFα, SMAC mimetic and Z-VAD, 6 h, maximal inhibition defined by Nec1s.
Setting [7] is: HT29-L23 cells, necroptosis induced with TNFα, SMAC mimetic and Z-VAD, 6 h, maximal inhibition defined by Nec1s, read-out: pMLKL IC50.
The mark [8] stands for this setting: read-out: pMLKL IC50, HT29-L23 cells, necroptosis induced with TNFα, SMAC mimetic and Z-VAD, 6 h, maximal inhibition defined by Nec1s.

In US11767322B2 (BRISTOL-MYERS SQUIBB COMPANY, priority 2020, dated 2023) one finds IC50 data, which are given here for 22 compounds.

pIC50: −log10 of the molar value. Read-outs that look alike come from different tables or passages of the source.

Sequence of GST-tagged PIK3Cδ in complex with PIK3R1 (O00329 whole entry): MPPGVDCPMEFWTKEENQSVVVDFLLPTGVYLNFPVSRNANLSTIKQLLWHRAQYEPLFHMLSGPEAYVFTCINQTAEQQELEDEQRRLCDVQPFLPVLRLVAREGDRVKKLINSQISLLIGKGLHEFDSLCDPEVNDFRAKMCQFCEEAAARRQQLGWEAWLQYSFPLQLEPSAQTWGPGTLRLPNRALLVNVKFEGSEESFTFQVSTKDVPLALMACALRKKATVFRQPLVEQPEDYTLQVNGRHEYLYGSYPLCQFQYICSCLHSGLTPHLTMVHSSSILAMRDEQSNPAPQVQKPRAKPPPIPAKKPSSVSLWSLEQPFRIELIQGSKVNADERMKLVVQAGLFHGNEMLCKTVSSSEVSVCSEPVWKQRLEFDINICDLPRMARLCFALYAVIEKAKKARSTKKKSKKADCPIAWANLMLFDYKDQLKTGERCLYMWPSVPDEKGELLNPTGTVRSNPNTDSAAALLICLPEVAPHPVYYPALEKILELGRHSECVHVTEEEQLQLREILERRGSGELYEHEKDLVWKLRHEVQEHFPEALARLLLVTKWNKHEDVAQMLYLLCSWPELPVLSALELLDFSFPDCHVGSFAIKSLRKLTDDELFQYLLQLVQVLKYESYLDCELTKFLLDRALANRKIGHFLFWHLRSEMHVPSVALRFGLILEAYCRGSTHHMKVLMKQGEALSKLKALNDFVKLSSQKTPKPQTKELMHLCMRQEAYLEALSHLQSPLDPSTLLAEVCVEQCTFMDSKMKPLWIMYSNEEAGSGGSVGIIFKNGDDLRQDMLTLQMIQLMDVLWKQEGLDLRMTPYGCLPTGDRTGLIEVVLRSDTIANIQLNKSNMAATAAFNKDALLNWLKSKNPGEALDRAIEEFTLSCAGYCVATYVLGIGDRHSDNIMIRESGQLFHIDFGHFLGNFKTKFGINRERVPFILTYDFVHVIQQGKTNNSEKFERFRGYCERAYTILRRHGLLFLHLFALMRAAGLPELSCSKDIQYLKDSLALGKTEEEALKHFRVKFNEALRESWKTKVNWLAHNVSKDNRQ
Sequence of GST-tagged PIK3Cδ in complex with PIK3R1 (P27986 whole entry partner): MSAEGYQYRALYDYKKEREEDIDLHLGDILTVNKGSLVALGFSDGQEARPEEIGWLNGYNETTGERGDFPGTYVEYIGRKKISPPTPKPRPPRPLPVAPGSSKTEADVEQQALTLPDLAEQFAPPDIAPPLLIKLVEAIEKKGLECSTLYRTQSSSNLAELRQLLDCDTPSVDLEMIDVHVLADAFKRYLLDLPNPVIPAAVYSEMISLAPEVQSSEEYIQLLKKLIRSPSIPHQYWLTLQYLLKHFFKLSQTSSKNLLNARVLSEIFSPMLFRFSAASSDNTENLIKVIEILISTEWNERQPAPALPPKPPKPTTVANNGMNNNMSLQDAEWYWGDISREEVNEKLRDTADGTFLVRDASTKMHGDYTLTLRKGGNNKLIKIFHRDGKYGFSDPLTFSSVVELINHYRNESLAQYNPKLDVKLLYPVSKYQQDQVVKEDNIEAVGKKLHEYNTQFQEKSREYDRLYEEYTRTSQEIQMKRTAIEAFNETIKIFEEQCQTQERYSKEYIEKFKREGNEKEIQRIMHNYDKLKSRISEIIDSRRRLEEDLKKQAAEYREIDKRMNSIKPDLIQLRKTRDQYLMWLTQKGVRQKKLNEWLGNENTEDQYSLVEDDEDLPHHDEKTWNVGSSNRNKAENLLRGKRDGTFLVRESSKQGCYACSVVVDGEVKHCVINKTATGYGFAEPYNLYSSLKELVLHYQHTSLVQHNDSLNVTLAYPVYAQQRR

For the compound `Cc1ccc(-c2ccn3nc(N)nc3c2)c(F)c1C(=O)NCCCC1CCCCC1` [Example 52, 3-(2-amino-[1,2,4]triazolo[1,5-a]pyridin-7-yl)-N-(3-cyclohexylpropyl)-2-fluoro-6-methylbenzamide], the negative logarithm of the IC50 (pIC50) in assay [1] (setting [4]) was less than 4.82; in assay [2] (setting [5]), 9.52; in assay [3] (setting [6]), 8.96.
The matching figures for `CCc1ccc(-c2ccn3nc(N)nc3c2)c(F)c1C(=O)NCC[C@@H](O)c1ccc(Cl)cc1` [Example 156, (R)-3-(2-amino-[1,2,4]triazolo[1,5-a]pyridin-7-yl)-N-(3-(4-chlorophenyl)-3-hydroxypropyl)-6-ethyl-2-fluorobenzamide]: less than 4.82, 8.24 and 9.10.
Consider `COc1c(-c2ccc(C)c(C(=O)NCC(F)(F)C(O)c3ccc(F)cc3)c2F)ccn2nc(N)nc12` (single isomer, unassigned; enantiomer 1) [Example 135], for which the pIC50 in assay [1] (setting [4]) is less than 4.82; in assay [2] (RIPK1 IC50), 8.25; in assay [3] (setting [7]) it was 9.30.
`Nc1nc2cc(-c3ccc(Cl)c(C(=O)NC[C@@H](F)[C@@H](O)c4ccc(F)cc4)c3F)ccn2n1` (single isomer, unassigned) [Example 298]: the pIC50 was 5.10 in assay [1] (setting [4]), 8.54 in assay [2] (setting [5]) and 9.30 in assay [3] (setting [6]).
As to `Cc1cc(F)c(-c2ccn3nc(N)nc3c2)cc1C(=O)NCCC(O)c1ccc(Cl)cn1` (single isomer, unassigned) [Example 7, 5-(2-amino-[1,2,4]triazolo[1,5-a]pyridin-7-yl)-N-(3-(5-chloropyridin-2-yl)-3-hydroxypropyl)-4-fluoro-2-methylbenzamide], the pIC50 is less than 4.82 in assay [1] (setting [4]), 8.00 in assay [2] (setting [5]) and 7.89 in assay [3] (setting [8]).
The matching figures for `Nc1nc2cc(-c3ccc(Cl)c(C(=O)NCC(F)(F)C(O)c4ccc(Cl)c(Cl)c4)c3F)ccn2n1` (single isomer, unassigned) [Example 265, 3-{2-amino-[1,2,4]triazolo[1,5-a]pyridin-7-yl}-6-chloro-N-[3-(3,4-dichlorophenyl)-2,2-difluoro-3-hydroxypropyl]-2-fluorobenzamide]: less than 4.82, 8.39 and 8.44.
On to `[2H]C([2H])(CC([2H])(O)c1ccc(Cl)cc1)NC(=O)c1c(F)ccc(-c2ccn3nc(N)nc3c2)c1F` (single isomer, unassigned) [Example 250, 3-(2-amino-[1,2,4]triazolo[1,5-a]pyridin-7-yl)-N-(3-(4-chlorophenyl)-3-hydroxypropyl-1,1,3-d3)-2,6-difluorobenzamide], for which the negative-log IC50 (pIC50) in assay [1] (setting [4]) is less than 4.82; in assay [2] (setting [5]), 7.89; in assay [3] (setting [6]), 7.68.
In the same order, the values of `Cc1ccc(-c2ccn3nc(N)nc3c2)c(F)c1C(=O)NC(C)CC(O)c1ccc(F)cc1` (centres unmarked) [Example 35, 3-(2-amino-[1,2,4]triazolo[1,5-a]pyridin-7-yl)-2-fluoro-N-(4-(4-fluorophenyl)-4-hydroxybutan-2-yl)-6-methylbenzamide] are 5.41, 8.70 and 9.05.
In the case of `COc1ccc(-c2ccn3nc(N)nc3c2)c(F)c1C(=O)NCC[C@H](O)c1ccc(Cl)cc1` [Example 147, (S)-3-(2-amino-[1,2,4]triazolo[1,5-a]pyridin-7-yl)-N-(3-(4-chlorophenyl)-3-hydroxypropyl)-2-fluoro-6-methoxybenzamide], the pIC50 in assay [1] was 4.89; in assay [2] (setting [5]), 8.03; in assay [2] (Table 22, compounds of the present invention, read-out: RPIK1 IC50), 8.03; in assay [3] (setting [6]), 7.68; in assay [3] (Homo sapiens, read-out: pMLKL IC50, Table 22, compounds of the present invention), 7.68.
Consider `Nc1nc2cc(-c3ccc(Cl)c(C(=O)NCC(F)(F)C(O)c4ccc(Cl)c(Cl)n4)c3F)ccn2n1` (single isomer, unassigned) [Example 272, 3-(2-amino-[1,2,4]triazolo[1,5-a]pyridin-7-y)-6-chloro-N-(3-(5,6-dichloropyridin-2-yl)-2,2-difluoro-3-hydroxypropyl)-2-fluorobenzamide], for which the negative logarithm of the IC50 (pIC50) in assay [1] (setting [4]) was less than 4.82; in assay [2] (setting [5]), 8.17; in assay [3] (setting [6]), 7.96.
For the compound `Cc1ccc(-c2ccn3nc(N)nc3c2)c(F)c1C(=O)NCCC(O)c1cccc(Cl)c1` (centres unmarked) [Example 43, 3-(2-amino-[1,2,4]triazolo[1,5-a]pyridin-7-yl)-N-(3-(3-chlorophenyl)-3-hydroxypropyl)-2-fluoro-6-methylbenzamide], the negative-log IC50 (pIC50) in assay [1] was 4.96; in assay [2] (setting [5]), 8.49; in assay [3] (setting [6]) it was 8.59.
For `CCc1ccc(-c2ccn3nc(N)nc3c2)c(F)c1C(=O)NCC[C@H](O)c1ccc(Cl)cc1` [Example 155, (S)-3-(2-amino-[1,2,4]triazolo[1,5-a]pyridin-7-yl)-N-(3-(4-chlorophenyl)-3-hydroxypropyl)-6-ethyl-2-fluorobenzamide], the pIC50 is less than 4.82 in assay [1] (setting [4]), 8.57 in assay [2] (setting [5]) and 9.22 in assay [3] (setting [6]).
With `Nc1nc2cc(-c3ccc(Cl)c(C(=O)NCC(F)(F)C(O)c4ccc(Cl)c(Cl)c4)c3F)ccn2n1` (single isomer, unassigned) [Example 264, 3-{2-amino-[1,2,4]triazolo[1,5-a]pyridin-7-yl}-6-chloro-N-[3-(3,4-dichlorophenyl)-2,2-difluoro-3-hydroxypropyl]-2-fluorobenzamide], the pIC50 in assay [1] (setting [4]) is less than 4.82; in assay [2] (setting [5]), 8.21; in assay [3] (setting [8]), 9.00.
`Cc1ccc(-c2ccn3nc(N)nc3c2)c(Cl)c1C(=O)NCC[C@H](O)c1ccc(Cl)cc1` [Example 145, (S)-3-(2-amino-[1,2,4]triazolo[1,5-a]pyridin-7-yl)-2-chloro-N-(3-(4-chlorophenyl)-3-hydroxypropyl)-6-methylbenzamide]: the pIC50 in assay [1] (setting [4]) is less than 4.82; in assay [2] (setting [5]), 7.68; in assay [3] (setting [6]), 7.46.
As to `[2H]C([2H])([2H])C(O)(c1ccc(F)cc1)C(F)CNC(=O)c1c(Cl)ccc(-c2ccn3nc(N)nc3c2)c1F` (single isomer, unassigned) [Example 239, 3-(2-amino-[1,2,4]triazolo[1,5-a]pyridin-7-yl)-6-chloro-2-fluoro-N-(2-fluoro-3-(4-fluorophenyl)-3-hydroxybutyl-4,4,4-d3)benzamide], the pIC50 in assay [1] (setting [4]) is less than 4.82; in assay [2] (setting [5]), 7.26; in assay [3] (setting [8]), 7.59.
In the same order, the values of `[2H]C([2H])([2H])C(O)(c1ccc(F)cc1)C(F)CNC(=O)c1c(Cl)ccc(-c2ccn3nc(N)nc3c2)c1F` (single isomer, unassigned) [Example 238, 3-(2-amino-[1,2,4]triazolo[1,5-a]pyridin-7-yl)-6-chloro-2-fluoro-N-(2-fluoro-3-(4-fluorophenyl)-3-hydroxybutyl-4,4,4-d3)benzamide] are less than 4.82, 7.80 and 8.72.
For the compound `CC(O)(c1ccc(F)cc1)C(F)(F)CNC(=O)c1c(Cl)ccc(-c2ccn3nc(N)nc3c2)c1F` (single isomer, unassigned) [Example 89, 3-(2-amino-[1,2,4]triazolo[1,5-a]pyridin-7-yl)-6-chloro-N-(2,2-difluoro-3-(4-fluorophenyl)-3-hydroxybutyl)-2-fluorobenzamide], the results for the pIC50 in assay [1] (setting [4]) and in assay [2] (setting [5]) were less than 4.82 and 8.11, respectively.
Regarding `COc1c(-c2ccc(C)c(C(=O)NCC[C@H](O)c3ccc(Cl)cc3)c2F)ccn2nc(N)nc12` (single isomer, unassigned; enantiomer 2) [Example 136], the negative-log IC50 (pIC50) in assay [1] is less than 4.82; in assay [2] (setting [5]), 8.23.
Take `[2H]C([2H])(CC([2H])(O)c1ccc(Cl)cc1)NC(=O)c1c(F)ccc(-c2ccn3nc(N)nc3c2)c1F` (single isomer, unassigned) [Example 251, 3-(2-amino-[1,2,4]triazolo[1,5-a]pyridin-7-yl)-N-(3-(4-chlorophenyl)-3-hydroxypropyl-1,1,3-d3)-2,6-difluorobenzamide]: the negative logarithm of the IC50 (pIC50) in assay [1] (setting [4]) is less than 4.82; in assay [2] (setting [5]), 7.80.
Take `Nc1nc2cc(-c3ccc(Cl)c(C(=O)NCC(F)(F)C(O)c4cnc(Cl)c(Cl)c4)c3F)ccn2n1` (single isomer, unassigned) [Example 271]: the pIC50 is 4.96 in assay [1] (setting [4]) and 8.82 in assay [2] (RIPK1 IC50).
Take `Cc1c(C(=O)NC(C)CC(O)c2ccc(Cl)cc2)cc(-c2ccn3nc(N)nc3c2)c(F)c1F` (racemic) [Example 100, 5-(2-amino-[1,2,4]triazolo[1,5-a]pyridin-7-yl)-N-(4-(4-chlorophenyl)-4-hydroxybutan-2-yl)-3,4-difluoro-2-methylbenzamide]: the figures for the pIC50 in assay [1] (setting [4]) and in assay [3] (setting [8]) were less than 4.82 and 7.57, respectively.
Turning to `Cc1c(C(=O)NC(CF)CC(O)c2ccc(Cl)cc2)cc(-c2ccn3nc(N)nc3c2)c(F)c1F` (racemic) [Example 102, 5-(2-amino-[1,2,4]triazolo[1,5-a]pyridin-7-yl)-N-(4-(4-chlorophenyl)-1-fluoro-4-hydroxybutan-2-yl)-3,4-difluoro-2-methylbenzamide], the negative logarithm of the IC50 (pIC50) in assay [1] (setting [4]) is less than 4.82; in assay [3] (setting [7]), 8.12.
